Reference: patent US20160318987A1 (MEDIMMUNE LIMITED, priority 2013, published 2016)
*1 amine or outer side, *2 acyl side, *3 side chain or, on linkers, in order; H or OH if unused. Where a SMILES comes first, the peptide text is derived from it. [ ]: non-standard residue; d: D form. X1 = CC(C)(c1ccccc1)[C@H](N[*:1])C(=O)[*:2]; Aib = CC(C)(N)C(=O)O

Tests used:
Format in all cases: cell-based
Conditions in all cases: n = 2
hGluc-R = molecular target: T1, hGluc-R (Homo sapiens, UniProt P47871); experiment: cAMP functional assay, cells expressing human glucagon receptor (primary assay)
T1 construct: expressed in transfected cells
T1 sequence (P47871 26-477): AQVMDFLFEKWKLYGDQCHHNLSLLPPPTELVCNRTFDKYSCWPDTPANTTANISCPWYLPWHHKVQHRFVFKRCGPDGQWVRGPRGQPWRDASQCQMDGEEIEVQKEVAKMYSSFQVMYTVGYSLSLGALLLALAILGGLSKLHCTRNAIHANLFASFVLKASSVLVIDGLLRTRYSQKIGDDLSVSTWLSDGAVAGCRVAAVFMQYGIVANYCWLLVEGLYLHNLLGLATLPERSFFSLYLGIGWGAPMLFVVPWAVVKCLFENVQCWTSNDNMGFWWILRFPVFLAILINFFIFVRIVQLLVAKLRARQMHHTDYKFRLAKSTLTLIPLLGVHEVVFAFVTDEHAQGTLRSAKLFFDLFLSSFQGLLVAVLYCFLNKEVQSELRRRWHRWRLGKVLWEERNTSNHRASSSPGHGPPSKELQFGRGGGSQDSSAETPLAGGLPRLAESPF

hGLP-1R = molecular target: T2, hGLP-1R (Homo sapiens, UniProt P43220); experiment: cAMP functional assay, cells expressing human GLP-1 receptor (primary assay)
T2 construct: expressed in transfected cells
T2 sequence (P43220 24-463): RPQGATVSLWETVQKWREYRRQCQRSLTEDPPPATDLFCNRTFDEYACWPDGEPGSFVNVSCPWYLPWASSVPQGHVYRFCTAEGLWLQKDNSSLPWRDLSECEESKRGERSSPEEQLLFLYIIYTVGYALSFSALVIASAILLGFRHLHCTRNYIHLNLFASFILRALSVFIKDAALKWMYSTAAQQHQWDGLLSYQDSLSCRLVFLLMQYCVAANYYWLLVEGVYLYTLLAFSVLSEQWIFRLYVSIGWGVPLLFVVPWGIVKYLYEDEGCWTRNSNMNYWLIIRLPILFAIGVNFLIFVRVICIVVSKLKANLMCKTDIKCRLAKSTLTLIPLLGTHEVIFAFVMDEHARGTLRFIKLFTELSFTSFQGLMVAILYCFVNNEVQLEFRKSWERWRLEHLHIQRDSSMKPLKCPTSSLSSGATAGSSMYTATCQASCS

hGIP-R = molecular target: T3, hGIP-R (Homo sapiens, UniProt P48546); experiment: cAMP functional assay, cells expressing human GIP receptor (primary assay)
T3 construct: expressed in transfected cells
T3 sequence (P48546 22-466): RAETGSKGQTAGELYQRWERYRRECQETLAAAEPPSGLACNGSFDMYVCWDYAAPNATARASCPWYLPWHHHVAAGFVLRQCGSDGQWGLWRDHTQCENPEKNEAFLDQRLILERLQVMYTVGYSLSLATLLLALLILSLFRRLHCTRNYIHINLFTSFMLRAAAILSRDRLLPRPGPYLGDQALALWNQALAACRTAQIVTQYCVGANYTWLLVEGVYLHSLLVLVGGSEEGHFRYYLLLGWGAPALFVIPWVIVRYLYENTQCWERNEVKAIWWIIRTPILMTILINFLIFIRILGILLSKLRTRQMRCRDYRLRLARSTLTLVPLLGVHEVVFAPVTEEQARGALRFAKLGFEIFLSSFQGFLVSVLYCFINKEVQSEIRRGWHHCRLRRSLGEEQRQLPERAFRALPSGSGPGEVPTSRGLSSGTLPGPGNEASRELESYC

| Compound | EC50 (hGluc-R) [nM] | EC50 (hGLP-1R) [nM] | EC50 (hGIP-R) [nM] |
| --- | --- | --- | --- |
| CCCCCCCCCCCCCCCC(=O)N[C@@H](CCC(=O)NCCCC[C@H](NC(=O)[C@](C)(CCCNC(=N)N)NC(=O)CNC(=O)[C@](C)(CCCCN)NC(=O)[C@@H](NC(=O)[C@H](CC(C)C)NC(=O)[C@](C)(Cc1c[nH]c2ccccc12)NC(=O)[C@H](C)NC(=O)[C@@H](NC(=O)[C@](C)(Cc1ccccc1)NC(=O)[C@H](CCC(=O)O)NC(=O)[C@](C)(CCCCN)NC(=O)[C@H](C)NC(=O)[C@H](C)NC(=O)[C@H](CCC(N)=O)NC(=O)CNC(=O)[C@H](CCC(=O)O)NC(=O)[C@H](CC(C)C)NC(=O)[C@](C)(Cc1ccc(O)cc1)NC(=O)[C@H](CO)NC(=O)[C@H](CO)NC(=O)[C@@H](NC(=O)[C@H](CC(=O)O)NC(=O)[C@H](CO)NC(=O)[C@@H](NC(=O)[C@](C)(Cc1ccccc1)NC(=O)[C@H](CO)NC(=O)CNC(=O)[C@H](CCC(=O)O)NC(=O)C(C)(C)NC(=O)[C@@H](N)Cc1c[nH]cn1)[C@@H](C)O)C(C)C)[C@@H](C)CC)C(C)C)C(N)=O)C(=O)O [SEQ ID NO: 58, H-(Aib)^2-EG-(S)^5-(α-MeF)^6-TSDV^10 SS-(α-MeY)^13-LE^15 GQAA-(α-MeK)^20 E-(α-MeF)^22-IA-(α-MeW)^25 LV-(α-MeK)^28-G-(α-MeR)^30-K(Ε-γ-E-Palm)] | 105 | 0.0848 | 105 |
| CC[C@H](C)[C@H](NC(=O)[C@@H](NC(=O)[C@H](CCC(=O)O)NC(=O)[C@H](CCCCN)NC(=O)[C@H](C)NC(=O)[C@H](C)NC(=O)[C@H](CCC(N)=O)NC(=O)CNC(=O)[C@H](CCC(=O)O)NC(=O)[C@H](CC(C)C)NC(=O)[C@@H](NC(=O)[C@H](CO)NC(=O)[C@H](CO)NC(=O)[C@@H](NC(=O)[C@H](CC(=O)O)NC(=O)[C@H](CO)NC(=O)[C@@H](NC(=O)[C@@H](NC(=O)[C@@H](NC(=O)CNC(=O)[C@H](CCC(=O)O)NC(=O)C(C)(C)NC(=O)[C@@H](N)Cc1c[nH]cn1)[C@@H](C)O)C(C)(C)c1ccccc1)[C@@H](C)O)C(C)C)C(C)(C)c1ccccc1)C(C)(C)c1ccccc1)C(=O)N[C@@H](C)C(=O)N[C@H](C(=O)N[C@@H](CC(C)C)C(=O)N[C@H](C(=O)N[C@@H](CCCCN)C(=O)NCC(=O)N[C@@H](CCCNC(=N)N)C(N)=O)C(C)C)C(C)(C)c1ccccc1 [SEQ ID NO: 62, H-(Aib)^2-EGT^5-(β, β-di-Me-Phe)^6-TSDV^10 SS-(β, β-di-Me-Phe)^13-LE^15 GQAAK^20 E-(β, β-di-Me-Phe)^22-IA-(β,β-di-Me-Phe)^25 LVKGR^30] (H-H[Aib]EGT[X1]TSDVSS[X1]LEGQAAKE[X1]IA[X1]LVKGR-NH2) | 98.9 | 98.9 | 98.9 |
